Experimental data taken from patent US8519110B2, “mRNA cap analogs” (Board of Supervisors of Louisiana State University And …, priority 2008, dated 2013).
Like-named read-outs stand apart in the source and are kept apart here.

Legend:
Human DcpS = biological target: T1, Human DcpS (Homo sapiens, UniProt Q96C86); assay: Assay of susceptibility to DcpS (RP HPLC); assay type: biochemical; conditions: 40 μM cap analog, 30° C., up to 120 min
T1 construct: made in house; host or cells: Escherichia coli
T1 sequence (Q96C86 1-337): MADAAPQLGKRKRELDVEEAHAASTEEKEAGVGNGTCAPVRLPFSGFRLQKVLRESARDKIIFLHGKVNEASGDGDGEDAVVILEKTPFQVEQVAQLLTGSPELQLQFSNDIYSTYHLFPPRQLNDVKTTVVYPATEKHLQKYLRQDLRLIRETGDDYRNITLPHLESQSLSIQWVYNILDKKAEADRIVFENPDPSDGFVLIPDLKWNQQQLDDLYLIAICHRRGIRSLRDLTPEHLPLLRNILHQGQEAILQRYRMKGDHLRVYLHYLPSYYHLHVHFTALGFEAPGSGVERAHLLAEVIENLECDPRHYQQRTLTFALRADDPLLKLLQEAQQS
Protocol: Human DcpS was expressed in Escherichia coli as described in L. Cohen et al., “Nematode m^7GpppG and m3^2,2,7GpppG decapping: activities in Ascaris embryos and characterization of C. elegans scavenger DcpS,” RNA, vol. 10, pp. 1609-1624 (2004). A 15 μM solution of the protein in 20 mM Tris buffer, pH 7.5, containing 50 mM KCl, 0.2 mM EDTA, 1 mM DTT, 0.5 mM PMSF, and 20% glycerol was stored at −80° C. until used. Enzymatic reactions were carried out at 30° C. in 500 μl of 50 mM Tris-HCl, pH 7.9, containing 20 mM MgCl2 and 60 mM (NH4)2SO4. A 40 μM solution of the selected cap analog was treated with 5.0 μl of DcpS for 120 min. At times of 10, 30, 60, and 120 min, a 100-μl sample was collected from the reaction mixture and deactivated by incubation at 90° C. for 2 min. Samples were analyzed without further treatment by analytical RP HPLC with a linear gradient of methanol in 0.1 M KH2PO4, pH 6.0, from 0-50% over 15 min.

eIF4E [1] = biological target: T2, eIF4E (Mus musculus, UniProt P63073); assay: Binding affinity of cap analogs to eIF4E by fluorescence titration; conditions: equilibrium association constant; 20 °C, pH 7.2, ionic strength 150 mM
T2 sequence (P63073 28-217 limits assumed): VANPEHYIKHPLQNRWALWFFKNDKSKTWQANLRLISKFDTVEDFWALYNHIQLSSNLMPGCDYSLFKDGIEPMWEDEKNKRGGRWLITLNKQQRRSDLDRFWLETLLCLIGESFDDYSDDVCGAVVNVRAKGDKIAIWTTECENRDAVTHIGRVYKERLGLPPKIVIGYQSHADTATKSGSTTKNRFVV
Protocol: Fluorescence titration measurements were carried out on an LS-50B or LS-55 spectrofluorometer (Perkin Elmer Co.) at 20.0±0.2° C. in 50 mM HEPES/KOH (pH 7.2), 0.5 mM EDTA, and 1 mM DTT, with ionic strength adjusted to 150 mM by addition of KCl. Various cap analogue solutions, of increasing concentration, were added in 1 μl aliquots to 1.4 ml of 0.1 or 0.2 μM protein solutions. Fluorescence intensities were measured with excitation at 280 nm or 295 nm with 2.2 nm bandwidth, and detection at 337 nm with 4 nm bandwidth and a 290-nm cut-off filter. The data were corrected for sample dilution and inner filter effects. Equilibrium association constants (Kas) were determined by fitting the theoretical dependence of fluorescence intensity on cap analog concentration to the experimental data, as otherwise described in A. Niedźwiecka et al., “Biophysical studies of eIF4E cap-binding protein: recognition of mRNA 5′ cap structure and synthetic fragments of eIF4G and 4E-BP1 proteins,” J. Mol. Biol., vol. 312, pp. 615-635 (2002). The concentration of protein was allowed to be a free parameter in the equilibrium equation, to determine the amount of “active” protein. The final Kas was calculated as a weighted average of three to ten independent titrations, with the weights taken as the reciprocals of the squares of the numerical standard deviations. Numerical nonlinear least-square regression analysis was performed using ORGIN 6.0 (Microcal Software Inc., USA).
The binding affinities of eukaryotic eIF4E for various cap analogs were determined by fluorescence quenching. This biophysical test allows one to predict the potential efficacy of cap analogs in translation. Those having higher affinities for eIF4E than the unmodified cap analog (m^7GpppG) are expected to be better recognized by the translational machinery, leading to higher translational efficiencies. They also are expected to compete more effectively with unmodified mRNA when free cap dinucleotides are used to inhibit translation. See generally E. Grudzien-Nogalska et al., “Synthesis of anti-reverse cap analogs (ARCAs) and their applications in mRNA translation and stability,” Methods Enzymol., vol. 431, pp. 203-227 (2007).

[2] = tested on: rabbit reticulocyte lysate system; assay: In vitro translation efficiency of capped luciferase mRNA with 31-base poly(A) tail, method II transcripts; assay type: biochemical
Protocol: Capped, polyadenylated luciferase mRNAs were synthesized in vitro by PCR from a dsDNA template that contained the SP6 promoter, the 5′-UTR sequence of rabbit β-globin mRNA, the entire firefly luciferase coding region, and 31 adenosine residues. A typical transcription reaction mixture (40 μl) contained SP6 transcription buffer (Fermentas), 0.7 ug of DNA template, 1 U/μl RiboLock Ribonuclease Inhibitor (Fermentas), 0.5 mM each of ATP, CTP, and UTP, 0.1 mM GTP, and 0.5 mM dinucleotide cap analog. The reaction mixture was incubated at 37° C. for 5 min before addition of SP6 RNA polymerase (Fermentas) to a final concentration of 1 U/μl, and incubation then continued for 45 min at 37° C. The reaction mixture was treated with DNase as in Method I. RNA transcripts were purified with NucAway Spin Columns (Ambion). The integrity of transcripts and quantitation was performed as in Method I.
A micrococcal nuclease-treated rabbit reticulocyte lysate system (Flexi Rabbit Reticulocyte Lysate System, Promega) was used for in vitro translation. Translation reactions were performed in 10 μl for 60 min at 30° C. A typical reaction mixture contained 40% reticulocyte lysate, the 20 “standard” amino acids (0.01 mM each), MgCl2 (1.2 mM), potassium acetate (170 mM), and mRNA (five different concentrations of each transcript, ranging from 0.25 to 4 μg/ml). Luciferase activity was measured in a luminometer (Glomax, Promega). Linear regression was used to fit the data points (luciferase activity versus concentration of mRNA transcript), and translational efficiency was defined as the slope of this line. The relative translational efficiencies of the test mRNAs were compared to that of m^7GpppG-capped luciferase mRNA, the latter being defined as 1.0.

[3] = biological target: cap-dependent translation of luciferase mRNA in reticulocyte lysate; assay: Inhibition of cap-dependent translation in vitro by free cap analogs; assay type: biochemical, rabbit
Protocol: In vitro translation reactions were performed in 12.5 μl for 60 min at 30° C. under conditions favorable for cap-dependent translation. In some cases, the reaction mixture was incubated for 60 min at 30° C. prior to adding the dinucleotide cap analog (inhibitor) and m2^7,3′-OGppG-capped luciferase mRNA to start translation. In other cases, to analyze biological stability, the cap analog was incubated in the translation mixture for 60 min at 30° C. prior to adding the luciferase mRNA to start translation. A typical reaction mixture contained 56% reticulocyte lysate, the 20 “standard” amino acids (0.01 mM each), MgCl2 (1.2 mM), potassium acetate (170 mM), RiboLock Ribonuclease Inhibitor (0.32 U/μl), cap analog solution ( 1/10 of total reaction volume), and m2^7,3′-OGpppG-capped luciferase RNA. […] Reactions were performed with cap analog concentrations ranging from 0.12 to 100 μM. Luciferase activity was measured in a luminometer. […] The program OriginPro8 (OriginLab) was used for curve fitting with the equation qLUC=Z/(1+I/IC50)+N, where qLUC is the activity of luciferase synthesized in the presence of cap analog, Z is the activity of luciferase synthesized in the absence of cap analog, N is the activity of luciferase synthesized in a cap-independent manner, and I is the cap analog concentration.
Two type of experiments were carried out. In one set of experiments (condition A), a cap analog was added to the translation system together with luciferase mRNA. In the other set of experiments (condition B), the cap analog was incubated in the translation system for 60 min before addition of mRNA. […] There was a correlation between the resistance to hydrolysis by DcpS and the stability of analogs in the translation system.

[4] = Chemical stability in solution and on storage; assay type: physicochemical
Protocol: FIG. 5 depicts the synthesis of m2^7,2′-OGppSepG. The selenophosphate (PSeO3^−3) was prepared by a modification of the method described in R. Glass et al., “Selenophosphate,” Meth. Enzymol., vol. 252, pp. 309-315 (1995). Trimethylsilyl phosphite was treated with selenium in pyridine to give trimethylsilyl selenophosphate, which was then desilylated by methanol in the presence of triethylamine to give the selenophosphate triethylammonium salt. This compound was coupled with the imidazolide derivative of 7,2′-O-dimethylguanosine 5′-monophosphate (m2^7,2′-OGMP-Im) to give 7,2′-O-dimethylguanosine 5′-O-(2-selenodiphosphate) (m2^7,2′-OGDPβSe). […] The reaction was very rapid; essentially 100% conversion of m2^7,2′-OGMP-Im into m2^7,2′-OGDPβSe was observed by RP HPLC after 15 min. […] Thus, care was taken to maintain the pH at 7 or above during purification of m2^7,2′-OGDPβSe, which allowed the product to be isolated with 80% yield after ion-exchange chromatography. The m2^7,2′-OGDPβSe was then coupled with the imidazolide derivative of GMP in the presence of excess ZnCl2. Two peaks were observed by RP HPLC, corresponding to two m2^7,2′-OGppSepG diastereomers, which were designated D1 and D2 according to their elution order. However, the coupling proceeded slowly, and complete disappearance of m2^7,2′-OGDPβSe took about two days. The extended reaction time allowed partial hydrolysis of m2^7,2′-OGDPβSe to m2^7,2′-OGMP, and only a moderate reaction yield (40% conversion by HPLC, 25% isolated). The diastereomeric mixture of m2^7,2′-OGppSepG after isolation by ion-exchange chromatography was successfully resolved into pure diastereomers by RP HPLC. The products were characterized by mass spectrometry, ^1H NMR, and ^31P NMR to confirm structures and homogeneity.

cultured mammalian cells [5] = conditions: compared with ARCA-capped (m2^7,3′-OGpppG) mRNA; cited from earlier work
eIF4E [6] = biological target: T2, eIF4E; conditions: literature comparison; cited from earlier work
recombinant human Dcp2 = recombinant human Dcp2 (Homo sapiens, UniProt Q8IU60); conditions: mRNAs capped with the analog; cited from earlier work
cultured mammalian cells [7] = conditions: compared with ARCA-capped mRNA; cited from earlier work
[8] = cap analog added together with luciferase mRNA, read-out: Inhibition of in vitro translation (IC50), condition A
[9] = cap analog incubated in translation system 60 min before addition of mRNA, read-out: Inhibition of in vitro translation (IC50), condition B

[BH3-]P(=O)(OP(=O)(O)OCC1OC(n2cnc3c(=O)[nH]c(N)nc32)C(O)C1O)OP(=O)(O)OCC1OC(n2c[n+](C)c3c(=O)[nH]c(N)nc32)C(O)C1O (single isomer, unassigned) [m^7GppBH3pG (D1), m^7GppBH3pG]
Susceptibility to DcpS (Human DcpS): resistant
Cap analog/eIF4E affinity (KAS) (eIF4E [1]): 44 ± 2 μM^−1
Translation efficiency in comparison to m^7GpppG-LUC-(A)31 mRNA, Experiment No. 4 ([2]; experiment 4): 1.65
Translation efficiency in comparison to m^7GpppG-LUC-(A)31 mRNA, Experiment No. 5 ([2]; experiment 5): 2.17
Translation efficiency in comparison to m^7GpppG-LUC-(A)31 mRNA, Mean ([2]; mean of experiments): 1.91
IC50 [3, 8]: 1600 ± 300 nM
IC50 [3, 9]: 1300 ± 100 nM

[BH3-]P(=O)(OC[C@H]1O[C@@H](n2cnc3c(=O)[nH]c(N)nc32)[C@H](O)[C@@H]1O)OP(=O)(O)OP(=O)(O)OC[C@H]1O[C@@H](n2c[n+](C)c3c(=O)[nH]c(N)nc32)[C@H](O)[C@@H]1O (single isomer, unassigned) [m^7GpppBH3G (D2), m^7GpppBH3G]
Susceptibility to DcpS (Human DcpS): hydrolyzed
Cap analog/eIF4E affinity (KAS) (eIF4E [1]): 14.4 ± 0.6 μM^−1
IC50 [3, 8]: 3100 ± 200 nM
IC50 [3, 9]: 16400 ± 800 nM

COC1C(O)C(COP(=O)([O-])OP(O)(O)=[Se])OC1n1c[n+](C)c2c(=O)[nH]c(N)nc21 (centres unmarked) [m2^7,2′-OGDPβSe, 7,2′-O-dimethylguanosine 5′-O-(2-selenodiphosphate)]
Stability in acidic aqueous solutions ([4]; acidic aqueous solutions, hydrolyzed to m2^7,2′-OGMP): unstable
Stability in neutral or basic solutions ([4]; neutral or basic solutions): only moderately stable

CO[C@H]1[C@@H](O)[C@H](n2c[n+](C)c3c(=O)[nH]c(N)nc32)O[C@@H]1COP(=O)([O-])OP(=O)(O)CP(=O)(O)OC[C@H]1O[C@@H](n2cnc3c(=O)[nH]c(N)nc32)[C@H](O)[C@@H]1O [m2^7,3′-OGppCH2pG]
Stability of capped mRNA in cultured cells (cultured mammalian cells [5]): more stable than those capped with m2^7,3′-OGpppG
Binding affinity for eIF4E (eIF4E [6]): lower binding affinity for eIF4E than that of m2^7,3′-OGpppG
Hydrolysis of capped mRNA by recombinant human Dcp2 in vitro (recombinant human Dcp2): resistant to hydrolysis
Overall translational efficiency of capped mRNA in cells (cultured mammalian cells [7]): lower overall translational efficiency
